Test results published in PMC7497630, “Coibamide A Targets Sec61 to Prevent Biogenesis of Secretory and Membrane Proteins” (ACS Chemical Biology, 2020).

How the values were obtained:
HCC-2998 = details: published NCI60 panel data, ref 1 (Coibamide A), 2 (Apratoxin A), 3 (Ipomoeassin F); cited from earlier work
HT29 = details: published NCI60 panel data, ref 1 (Coibamide A), 2 (Apratoxin A), 3 (Ipomoeassin F); cited from earlier work
SK-MEL-5 = details: published NCI60 panel data, ref 1 (Coibamide A), 2 (Apratoxin A), 3 (Ipomoeassin F); cited from earlier work
MCF7 = details: published NCI60 panel data, ref 1 (Coibamide A), 2 (Apratoxin A), 3 (Ipomoeassin F); cited from earlier work
T-47D = details: published NCI60 panel data, ref 1 (Coibamide A), 2 (Apratoxin A), 3 (Ipomoeassin F); cited from earlier work
NCI-H460 = details: published NCI60 panel data, ref 1 (Coibamide A), 2 (Apratoxin A), 3 (Ipomoeassin F); cited from earlier work
SF-539 = details: published NCI60 panel data, ref 1 (Coibamide A), 2 (Apratoxin A), 3 (Ipomoeassin F); cited from earlier work
SF-295 = details: published NCI60 panel data, ref 1 (Coibamide A), 2 (Apratoxin A), 3 (Ipomoeassin F); cited from earlier work
SF-268 = details: published NCI60 panel data, ref 1 (Coibamide A), 2 (Apratoxin A), 3 (Ipomoeassin F); cited from earlier work
HL-60 (TB) = details: published NCI60 panel data; cited from earlier work
COLO 205 = details: published NCI60 panel data, ref 1 (Coibamide A), 2 (Apratoxin A), 3 (Ipomoeassin F); cited from earlier work
HOP-92 = details: published NCI60 panel data, ref 1 (Coibamide A), 2 (Apratoxin A), 3 (Ipomoeassin F); cited from earlier work
SK-OV-3 = details: published NCI60 panel data, ref 1 (Coibamide A), 2 (Apratoxin A), 3 (Ipomoeassin F); cited from earlier work
LOX IMVI = details: published NCI60 panel data, ref 1 (Coibamide A), 2 (Apratoxin A), 3 (Ipomoeassin F); cited from earlier work
M14 = details: published NCI60 panel data, ref 1 (Coibamide A), 2 (Apratoxin A), 3 (Ipomoeassin F); cited from earlier work
HCT-116 = details: published NCI60 panel data, ref 1 (Coibamide A), 2 (Apratoxin A), 3 (Ipomoeassin F); cited from earlier work
SR = details: published NCI60 panel data, ref 1 (Coibamide A), 2 (Apratoxin A), 3 (Ipomoeassin F); cited from earlier work
MDA-MB-231/ATCC = details: published NCI60 panel data, ref 1 (Coibamide A), 2 (Apratoxin A), 3 (Ipomoeassin F); cited from earlier work
HS 578T = details: published NCI60 panel data, ref 1 (Coibamide A), 2 (Apratoxin A), 3 (Ipomoeassin F); cited from earlier work
RXF 393 = details: published NCI60 panel data, ref 1 (Coibamide A), 2 (Apratoxin A), 3 (Ipomoeassin F); cited from earlier work
RPMI-8226 = details: published NCI60 panel data, ref 1 (Coibamide A), 2 (Apratoxin A), 3 (Ipomoeassin F); cited from earlier work
IGROV1 = details: published NCI60 panel data, ref 1 (Coibamide A), 2 (Apratoxin A), 3 (Ipomoeassin F); cited from earlier work
U251 = details: published NCI60 panel data, ref 1 (Coibamide A), 2 (Apratoxin A), 3 (Ipomoeassin F); cited from earlier work
K-562 = details: published NCI60 panel data, ref 1 (Coibamide A), 2 (Apratoxin A), 3 (Ipomoeassin F); cited from earlier work
SNB-75 = details: published NCI60 panel data, ref 1 (Coibamide A), 2 (Apratoxin A), 3 (Ipomoeassin F); cited from earlier work
SW-620 = details: published NCI60 panel data, ref 1 (Coibamide A), 2 (Apratoxin A), 3 (Ipomoeassin F); cited from earlier work
CCRF-CEM = details: published NCI60 panel data, ref 1 (Coibamide A), 2 (Apratoxin A), 3 (Ipomoeassin F); cited from earlier work
MDA-MB-435 = details: published NCI60 panel data, ref 1 (Coibamide A), 2 (Apratoxin A), 3 (Ipomoeassin F); cited from earlier work
SNB-19 = details: published NCI60 panel data, ref 1 (Coibamide A), 2 (Apratoxin A), 3 (Ipomoeassin F); cited from earlier work
HOP-62 = details: published NCI60 panel data, ref 1 (Coibamide A), 2 (Apratoxin A), 3 (Ipomoeassin F); cited from earlier work
PC-3 = details: published NCI60 panel data, ref 1 (Coibamide A), 2 (Apratoxin A), 3 (Ipomoeassin F); cited from earlier work
SK-MEL-28 = details: published NCI60 panel data, ref 1 (Coibamide A), 2 (Apratoxin A), 3 (Ipomoeassin F); cited from earlier work
NCI-H226 = details: published NCI60 panel data, ref 1 (Coibamide A), 2 (Apratoxin A), 3 (Ipomoeassin F); cited from earlier work
UO-31 = details: published NCI60 panel data, ref 1 (Coibamide A), 2 (Apratoxin A), 3 (Ipomoeassin F); cited from earlier work
OVCAR8 = details: published NCI60 panel data, ref 1 (Coibamide A), 2 (Apratoxin A), 3 (Ipomoeassin F); cited from earlier work
786-0 = details: published NCI60 panel data, ref 1 (Coibamide A), 2 (Apratoxin A), 3 (Ipomoeassin F); cited from earlier work
A549/ATCC = details: published NCI60 panel data, ref 1 (Coibamide A), 2 (Apratoxin A), 3 (Ipomoeassin F); cited from earlier work
A498 = details: published NCI60 panel data, ref 1 (Coibamide A), 2 (Apratoxin A), 3 (Ipomoeassin F); cited from earlier work
NCI-H522 = details: published NCI60 panel data, ref 1 (Coibamide A), 2 (Apratoxin A), 3 (Ipomoeassin F); cited from earlier work
DU-145 = details: published NCI60 panel data, ref 1 (Coibamide A), 2 (Apratoxin A), 3 (Ipomoeassin F); cited from earlier work
UACC-257 = details: published NCI60 panel data, ref 1 (Coibamide A), 2 (Apratoxin A), 3 (Ipomoeassin F); cited from earlier work
UACC-62 = details: published NCI60 panel data, ref 1 (Coibamide A), 2 (Apratoxin A), 3 (Ipomoeassin F); cited from earlier work
MALME-3M = details: published NCI60 panel data, ref 1 (Coibamide A), 2 (Apratoxin A), 3 (Ipomoeassin F); cited from earlier work
KM12 = details: published NCI60 panel data, ref 1 (Coibamide A), 2 (Apratoxin A), 3 (Ipomoeassin F); cited from earlier work
NCI-H322M = details: published NCI60 panel data, ref 1 (Coibamide A), 2 (Apratoxin A), 3 (Ipomoeassin F); cited from earlier work
SN12C = details: published NCI60 panel data, ref 1 (Coibamide A), 2 (Apratoxin A), 3 (Ipomoeassin F); cited from earlier work
OVCAR5 = details: published NCI60 panel data, ref 1 (Coibamide A), 2 (Apratoxin A), 3 (Ipomoeassin F); cited from earlier work
EKVX = details: published NCI60 panel data, ref 1 (Coibamide A), 2 (Apratoxin A), 3 (Ipomoeassin F); cited from earlier work
OVCAR3 = details: published NCI60 panel data, ref 1 (Coibamide A), 2 (Apratoxin A), 3 (Ipomoeassin F); cited from earlier work
HCT-15 = details: published NCI60 panel data, ref 1 (Coibamide A), 2 (Apratoxin A), 3 (Ipomoeassin F); cited from earlier work
MOLT-4 = details: published NCI60 panel data, ref 1 (Coibamide A), 2 (Apratoxin A), 3 (Ipomoeassin F); cited from earlier work
SK-MEL-2 = details: published NCI60 panel data, ref 1 (Coibamide A), 2 (Apratoxin A), 3 (Ipomoeassin F); cited from earlier work
NCI/ADR-RES = details: published NCI60 panel data, ref 1 (Coibamide A), 2 (Apratoxin A), 3 (Ipomoeassin F); cited from earlier work
NCI-H23 = details: published NCI60 panel data, ref 1 (Coibamide A), 2 (Apratoxin A), 3 (Ipomoeassin F); cited from earlier work
TK-10 = details: published NCI60 panel data, ref 1 (Coibamide A), 2 (Apratoxin A), 3 (Ipomoeassin F); cited from earlier work
BT-549 = details: published NCI60 panel data, ref 1 (Coibamide A), 2 (Apratoxin A), 3 (Ipomoeassin F); cited from earlier work
OVCAR4 = details: published NCI60 panel data, ref 1 (Coibamide A), 2 (Apratoxin A), 3 (Ipomoeassin F); cited from earlier work
Sec61α = assay: Photoaffinity labeling competition in sheep rough microsomes; assay type: binding; details: SRM with 100 nM Sec61, 30 min with competitor, then 100 nM photo-CbA, UV 10 min, TAMRA in-gel fluorescence
Protocol: Figure 2 Photo-cross-linking of photo-CbA to Sec61α and CbA stabilization of Sec61 in cells. Photocotransin (CT7) or photocoibamide (pCbA) cross-linking to cells or sheep rough microsomes (SRM). Samples were photolyzed and the covalent adduct detected by click-chemistry to TAMRA-azide reporter and in-gel fluorescence scanning and Western blotting. (A) A431 cell lines were first incubated with CbA or carrier, followed by incubation with photo-CbA, photolysis, and click chemistry. Following SDS PAGE, lysates were queried for in gel fluorescence and subsequently transferred for anti-Sec61α and anti-FLAG Western Blot. Arrows indicate Sec61 (with or without a 10 kDa insert), star indicates nonspecific WB signal, triangle indicates free TAMRA dye within the gel. (B) As in A but in SRMs. […] Heat-treated cell suspensions were snap frozen, lysates cleared by centrifugation, and the soluble fraction analyzed by SDS-PAGE and Western blotting. […] (F) Quantification of immunoblot data shown in E. Sec61α band intensity was normalized to tubulin, and data points were fitted using nonlinear regression analysis.
The photoaffinity labeling and click chemistry with microsomes were done as previously described.[17] […] The labeled proteins were analyzed by SDS-PAGE and in-gel fluorescence. […]

Compound: C/C=C(\C)C(=O)O[C@@H]1[C@@H](O)[C@@H]2O[C@H]3[C@H](O[C@@H](CCCCC)CCCCCCC(=O)CCC(=O)OC[C@@H](O2)[C@H]1OC(=O)/C=C/c1ccccc1)O[C@H](C)[C@H](OC(C)=O)[C@@H]3O [IpoF, ipomoeassin F]
- GI50 (HCC-2998): 1180 nM
- GI50 (HT29): 10 nM
- GI50 (SK-MEL-5): 10 nM
- GI50 (MCF7): 10 nM
- GI50 (T-47D): 10 nM
- GI50 (NCI-H460): 10 nM
- GI50 (SF-539): 10 nM
- GI50 (SF-295): 10 nM
- GI50 (SF-268): 115 nM
- GI50 (HL-60 (TB)): 49 nM
- GI50 (COLO 205): 10 nM
- GI50 (HOP-92): 10 nM
- GI50 (SK-OV-3): 38.4 nM
- GI50 (LOX IMVI): 10 nM
- GI50 (M14): 10 nM
- GI50 (HCT-116): 10 nM
- GI50 (SR): 14.4 nM
- GI50 (MDA-MB-231/ATCC): 10 nM
- GI50 (HS 578T): 10 nM
- GI50 (RXF 393): 10 nM
- GI50 (RPMI-8226): 10 nM
- GI50 (IGROV1): 26.7 nM
- GI50 (U251): 10 nM
- GI50 (K-562): 10 nM
- GI50 (SNB-75): 10 nM
- GI50 (SW-620): 10 nM
- GI50 (CCRF-CEM): 741 nM
- GI50 (MDA-MB-435): 10 nM
- GI50 (SNB-19): 129 nM
- GI50 (HOP-62): 10 nM
- GI50 (PC-3): 10 nM
- GI50 (SK-MEL-28): 17.5 nM
- GI50 (NCI-H226): 276 nM
- GI50 (UO-31): 10 nM
- GI50 (OVCAR8): 117 nM
- GI50 (786-0): 30.1 nM
- GI50 (A549/ATCC): 10 nM
- GI50 (A498): 315 nM
- GI50 (NCI-H522): 27.9 nM
- GI50 (DU-145): 31.9 nM
- GI50 (UACC-257): 11.9 nM
- GI50 (UACC-62): 15.3 nM
- GI50 (MALME-3M): 57.8 nM
- GI50 (KM12): 10 nM
- GI50 (NCI-H322M): 391 nM
- GI50 (SN12C): 10 nM
- GI50 (OVCAR5): 1230 nM
- GI50 (EKVX): 10 nM
- GI50 (OVCAR3): 28.3 nM
- GI50 (HCT-15): 29.8 nM
- GI50 (MOLT-4): 3420 nM
- GI50 (SK-MEL-2): 445 nM
- GI50 (NCI/ADR-RES): 297 nM
- GI50 (NCI-H23): 213 nM
- GI50 (TK-10): 15.2 nM
- GI50 (BT-549): 17.9 nM
- GI50 (OVCAR4): 1580 nM

Compound: CC(=C\C=C\C(C)=C\[C@H](O)[C@@H](O)C[C@H](C)O)/C=C(C)/C=C/C(=O)O[C@H]1CCCC(=O)O[C@@H]([C@@H](C)C/C(C)=C/[C@@H](C)[C@H](O)C[C@@H](C)O)C/C=C(\C)C[C@@H]1C [mycolactone]
- competition of photo-CbA cross-linking to Sec61α (Sec61α): prevented photo-CbA cross-linking in a concentration-dependent manner
